Experimental data published in patent US10420745B2 (priority 2015, dated 2019).

Each compound was assayed on Clostridia perfringens. Details: minimum inhibitory concentration towards Clostridia perfringens, in vitro.
Format: cell-based
With `CCCC(=O)O` [Butyric acid] the MIC was 62 mmol. Work on `CCCC(=O)OCC(O)CO` (stereo not shown) [Glyceryl monobutyrate] yielded an MIC of 125 mmol. Work on `CCC(=O)OCC(O)CO` (stereo not shown) [Glyceryl monopropionate] yielded an MIC of 250 mmol. In the case of `CCCCC(=O)OCC(O)CO` (stereo not shown) [Glyceryl monovalerate], the MIC is reported as 15 mmol. `CCC(=O)O` [Propionic acid] was tested, and the MIC was 62 mmol. Work on `CCCCC(=O)O` [Valeric acid] yielded an MIC of 15 mmol.

These compounds were tested on Clostridium perfringens-induced necrotic enteritis. Details: Ross 308 broilers, lower concentration in feed (2.5/2/1.5 kg/ton weeks 1/2/3), adsorbed on silica carrier, C. perfringens challenge days 17-20, scoring day 21; positive control 71%.
Format: in vivo, broiler chicken
For `CCCCC(=O)OCC(O)CO` (stereo not shown) [Glyceryl monovalerate], the “animals within the group diagnosed as necrotic enteritis positive (macroscopic lesion score ≥2)” value was 27%.
